The results in this text go back to US8563254B2, “Biomarkers of tumor pharmacodynamic response” (Novartis AG, priority 2009, dated 2013).

Structures are written as SMILES.

Test [1] has as its system GTL-16 tumor-bearing mice. The test is described as follows: Serum IL-8 / mouse KC in GTL-16 mouse xenograft model. In kind it is in vivo. How it is done: (§1) The in vivo study was carried out in strict accordance with Swiss law for animal protection and was approved by the Swiss Cantonal Veterinary Office of Basel-Stadt. GTL-16 (4×10^6) and A375 cells (5×10^6) were inoculated subcutaneously in the right flank in 200 μl Hanks' balanced salt solution (HBSS) or PBS, respectively. Invasive procedures were performed under Forene anesthesia. All experiments were performed in female Harlan HsdNpa: Athymic Nude-nu mice (Laboratory Animal Services, Novartis Pharma AG, Basel). The animals were kept under optimized hygienic conditions with 12 hr dark, 12 hr light conditions. The animals were fed food and water ad libitum. A single 75 mg/kg and 50 mg/kg dose of Hsp90 inhibitor, NVP-AUY922 was administered to the GTL-16 and A375 tumor-bearing mice, when tumors had reached a mean volume of 200 mm^3-500 mm^3 in size. Mice in the control group were injected with the vehicle (D5W). Serum was isolated and tumors dissected over the time course 0-168 hr. Tumors were cut in two halves. One half was paraffin embedded and the other snap frozen, and stored at −80° C.
(§2) Human IL-8 levels in cell culture supernatants treated with NVP-AUY922 were initially assessed as part of a multiplexed bead-based cytokine panel (hu 27-plex panel I, Bio-rad Laboratories, Hercules, Calif., USA) with a BioPlex Suspension Array System (Bio-rad). Human IL-8 and mouse KC levels in serum derived from GTL-16 and A375 tumor-bearing mice treated with NVP-AUY922 were measured by single-plex cytokine bead-based assay (Milliplex, Millipore, Billerica, Mass., USA). The BioPlex system uses a liquid suspension array of beads. The beads align in a single file through a flow cell to the detector, where a red classification laser at a wavelength of 635 nm and a green reporter laser at a wavelength of 532 nm are used to identify each bead's spectral address and associated reporter signal, respectively.

A further test deals with GTL-16 cells. The test is described as follows: Multiplexed bead-based 27-plex cytokine panel, GTL-16 culture supernatants. In kind it is cell-based, human. Conditions: 48 hr. How it is done: A malignant melanoma cell line A375 (American Type Culture Collection, Manassas, Va., USA) and gastric cancer cell line, GTL-16 (Prof Silvia Giordano, Institute for Cancer Research and Treatment, Turin, Italy) were cultured in RPMI 1640 supplemented with 10% FBS and 1% penicillin-streptomycin at 37° C. in 5% CO2 (GIBCO reagents, Invitrogen Corporation, Carlsbad, Calif., USA). Cell numbers were determined by ViCell™ XR Cell Viability Analyzer 2.03 (Beckman Coulter, Inc., Fullerton, Calif., USA). Cells were seeded in poly-D-lysine coated plates (BIOCOAT Cell Environments, Becton Dickinson Biosciences, San Jose, Calif., USA).
as §2
In a screen for candidate secreted markers of Hsp90 inhibition, cell culture supernatants were collected from GTL-16 gastric carcinoma and A375 melanoma cells that were washed and treated for 48 hr with 1 μM NVP-AUY922 in fresh culture medium. These samples were analyzed by a multiplexed cytokine bead-based assay that included a panel of 27 human cytokines, the results of which are shown in FIG. 1. […] In addition to this empirical investigation using the bead-based immunoassay panel, in silica data mining was undertaken to identify secreted proteins that were regulated by previously reported Hsp90 client proteins; this investigation pointed to a number of candidates, including IL-8, consistent with the empirical results.

Test [2] deals with GTL-16 tumor-bearing mice. The test is described as follows: Hsp70 expression in GTL-16 xenograft tumors (Western blot, IHC). Conditions: GTL-16 tumors, single 75 mg/kg dose i.v. Type of test: in vivo. As to the method:
as §1
Total protein lysates were prepared from the GTL-16 and A375 cells with RIPA lysis buffer (Upstate, Millipore Corporation, Charlottesville, Va., USA). […] Proteins were quantified by bicinchoninic acid assay (Pierce Biotechnology, Rockford, Ill., USA) for Western blotting. […]

Regarding `CCNC(=O)c1noc(-c2cc(C(C)C)c(O)cc2O)c1-c1ccc(CN2CCOCC2)cc1` [NVP-AUY922, 5-(2,4-Dihydroxy-5-isopropyl-phenyl)-4-(4-morhpolin-4-ylmethyl-phenyl)-isoxazole-3-carboxylic acid ethylamide], the “murine IL-8 levels, measured indirectly as mu KC” value in test [1] (serum) was “unchanged”. Moreover, in test [1] (single 75 mg/kg dose), the “earliest time of significant decrease in serum IL-8” value worked out at 6 h and the “time by which serum IL-8 recovers to pre-treatment levels” value was ≤ 72 h. Also, the “maximum decline of serum IL-8 levels” value in test [1] (single 75 mg/kg dose, 12 hr post-treatment) is listed as “approximately 70%”. In the test on GTL-16 cells (GTL-16, 1 μM), the “accumulation of FGF basic and MIP-1b” value is “virtually unchanged”; the “accumulation of IL-1ra, IL-8, IL-17, Eotaxin, GM-CSF, IP-10, PDGF-bb and VEGF” value is reported as “decreased accumulation”; the “accumulation of IL-15” value was “increased accumulation”. In addition, the IL-8 accumulation decreased result with GTL-16 cells (GTL-16 culture supernatant, 1 μM, multiplexed assay) is reported as “more than 80%”. In addition, in test [2], the “earliest time post-treatment at which Hsp70 is induced in tumor” value was found to be 6 h and the “stable Hsp70 induction in tumor up to” value was 48 h.
